Measured values: patent US20220054494A1, “METHODS FOR TREATING BLADDER AND URETHRA DYSFUNCTION AND DISEASE” (University of Pittsburgh - Of the Commonwealth System of …, priority 2019, published 2022)
Entries after “also recorded” stand apart in the source; their conditions may differ.

How the values were obtained:
LC3 = assay: Western immunoblotting, LC3 (lipidated form); format: in vivo, rat; details: aged rats; oral 8-AG 5 mg/kg/day, 6 weeks
Protocol: Western immunoblotting: Following the testing paradigms, rats were deeply anesthetized, bladders as well as the proximal urethra were removed, and one half of each preparation was homogenized using Lysing Matrix D in a FastPrep 24 instrument (MP Biomedicals, Solon, Ohio) in HBSS [5 mM KCl, 0.3 mM KH2PO4, 138 mM NaCl, 4 mM NaHO3, 0.3 mM Na2HCO3, 0.3 mM Na2HPO4, 5.6 mM glucose, and 10 mM Hepes, pH 7.4 containing a complete protease inhibitor cocktail (1 tablet/10 ml, ROCHE®, Indianapolis, Ind.) and a phosphatase inhibitor cocktail (SIGMA®, 1:100)]. After centrifugation (13000 rpm; 15 min at 4° C.), the membrane protein fraction was prepared by suspending the membrane pellets in lysis buffer containing 0.3 M NaCl, 50 mM Tris-HCl (pH 7.6), and 0.5% Triton X-100 and the same concentration of protease inhibitors as above. The suspensions were incubated on ice and centrifuged (13000 rpm; 15 min at 4° C.). The protein concentrations of the combined supernatants were determined using the PIERCE® BCA protein assay (THERMO SCIENTIFIC®, Rockford, Ill.). […] As a loading control, total protein per sample was determined using Bio-Rad Stain Free SDS-PAGE gel technology. UV-activated protein fluorescence was imaged on a CHEMIDOC® MP (BIO-RAD®). […] The volume (intensity) of each protein species was determined and normalized to total protein using Image Lab software (BIO-RAD®).

[1] = system: dynamin-related protein (DRP-1); assay: Western immunoblotting, DRP-1; format: in vivo, rat; details: aged rats; oral 8-AG 5 mg/kg/day, 6 weeks
Protocol: Western immunoblotting: One half of each bladder preparation was homogenized using Lysing Matrix D in a FastPrep 24 instrument (MP Biomedicals, Solon, Ohio) in HBSS (5 mM KCl, 0.3 mM KH2PO4, 138 mM NaCl, 4 mM NaHO3, 0.3 mM Na2HCO3, 0.3 mM Na2HPO4, 5.6 mM glucose and 10 mM Hepes, pH 7.4) containing complete protease inhibitor cocktail (1 tablet/10 ml, ROCHE®, Indianapolis, Ind.)) and phosphatase inhibitor cocktail (SIGMA®, 1:100). After centrifugation (13000 rpm; 15 min at 4° C.), the membrane protein fraction was prepared by suspending the membrane pellets in lysis buffer containing 0.3 M NaCl, 50 mM Tris-HCl (pH 7.6) and 0.5% Triton X-100 and the same concentration of protease inhibitors as above. The suspensions were incubated on ice and centrifuged (13000 rpm; 15 min at 4° C.). The protein concentrations of the combined supernatants were determined using the PIERCE® BCA protein assay (THERMO SCIENTIFIC®, Rockford, Ill.). […] As a loading control, total protein per sample was determined using Bio-Rad® Stain Free SDS-PAGE gel technology. UV-activated protein fluorescence was imaged on a CHEMIDOC® MP (BIO-RAD®). […] The volume (intensity) of each protein species was determined and normalized to total protein using Image Lab software (BIO-RAD®).

**Q.** For `Nc1nc2[nH]c(N)nc2c(=O)[nH]1` [8-AG, 8-Aminoguanine], which “LC3 (lipidated form) expression in detrusor” value (LC3) is on record?
**A.** Its value is “partially restores expression toward younger state; also recorded: trend toward reversal”.

**Q.** And the “DRP-1 in bladder mucosa” value [1]?
**A.** The value was “reversed or restored to levels similar to the younger state; also recorded: restored changes similar to a younger state”.
